Measurements as given in ChEMBL document CHEMBL1158999, “Biologically active gamma-lactones and methylketoalkenes from Lindera benzoin” (J Nat Prod, 1992).
Values after ≈ are worked out from the molar mass of the structure shown.

What was measured:
[1] = system: Tetranychus urticae; assay: Insecticidal activity against Tetranychus urticae assessed as mortality at 12 ppm; format: functional
[2] = system: MCF7; assay: Cytotoxicity against human MCF7 cells; format: functional; details: read-out: ED50 (the source's name)
[3] = system: Spodoptera eridania; assay: Insecticidal activity against Spodoptera eridania assessed as mortality at 12 ppm; format: functional
[4] = system: Aphis gossypii; assay: Insecticidal activity against Aphis gossypii assessed as mortality at 12 ppm; format: functional
[5] = system: HT-29; assay: Cytotoxicity against human HT-29 cells; format: functional; details: read-out: ED50 (the source's name)
[6] = system: Diabrotica undecimpunctata; assay: Insecticidal activity against Diabrotica undecimpunctata assessed as mortality at 12 ppm; format: functional
[7] = system: Artemia salina; assay: Toxicity in Artemia salina; format: organism-based; details: in vivo
[8] = system: A549; assay: Cytotoxicity against human A549 cells; format: functional; details: read-out: ED50 (the source's name)
[9] = system: Agrobacterium tumefaciens; assay: Antitumor activity against Agrobacterium tumefaciens-induced crown gall tumor in potato tubers at by potato disk assay; format: functional

SMILES	Activity [1] [%]	EC50 [2] [µg/mL]	Activity [3] [%]	Activity [4] [%]	EC50 [5] [µg/mL]	Activity [6] [%]	LC50 [7] [ppm]	EC50 [8] [µg/mL]	inhibition (INH) [9] [%]
C=C1OC(=O)/C(=C\CCCCCCCCCCCCC)[C@@H]1O [OBTUSILACTONE A]	0	5.12 (≈ 16.6 µM)	0	0	2.93 (≈ 9.5 µM)	0	0.89	> 10	–
C=CCCCCCCCCC/C=C1/C(=O)OC(=C)[C@H]1O [ISOOBUTASILACTONE]	0	4.6 (≈ 16.5 µM)	0	0	2.92 (≈ 10.5 µM)	0	0.065	> 10	–
C=C1OC(=O)/C(=C/CCCC/C=C\CCCCCCCCC)[C@@H]1O [ISOLINDERENOLIDE]	0	2.58 (≈ 7.71 µM)	0	0	1.9 (≈ 5.68 µM)	0	0.52	3.01 (≈ 9 µM)	41.4
C=C1OC(=O)/C(=C\CCCCCCCCCCCCCCC)[C@@H]1O [LINDERANOLIDE]	–	73.6 (≈ 219 µM)	–	–	30.5 (≈ 90.6 µM)	–	5.23	0.928 (≈ 2.76 µM)	–
C=C1OC(=O)/C(=C/CCCCCCCCCCCCCCC)[C@@H]1O [ISOLINDERANOLIDE]	0	3.12 (≈ 9.27 µM)	0	0	3.07 (≈ 9.12 µM)	20	0.96	4.57 (≈ 13.6 µM)	44.9
C=C1OC(=O)/C(=C/CCCCCCCCCCCCC)[C@@H]1O [ISOOBTUSILACTONE A]	0	2.31 (≈ 7.49 µM)	0	0	2.48 (≈ 8.04 µM)	0	0.72	3.75 (≈ 12.2 µM)	–
C=C[C@](C)(O)CC/C=C(/C)CCC=C(C)C	–	> 10	–	–	> 10	–	5.75	> 10	–
CC/C=C\C/C=C\C/C=C\CCCC(C)=O	–	5.15 (≈ 23.4 µM)	–	–	3.01 (≈ 13.7 µM)	–	3	> 10	–
CCCCC/C=C\C/C=C\CCCC(C)=O	–	> 10	–	–	> 10	–	2.9	> 10	–
C=CCCCCCCCCC/C=C1\C(=O)OC(=C)[C@H]1O [OBTUSILACTONE]	0	4.58 (≈ 16.5 µM)	0	0	3.26 (≈ 11.7 µM)	0	0.035	3.32 (≈ 11.9 µM)	64.2
COc1cccc2c1C(=O)c1c(O)c3c(c(O)c1C2=O)C[C@@](O)(C(=O)CO)C[C@@H]3O[C@H]1C[C@H](N)[C@H](O)[C@H](C)O1 [DOXORUBICIN]	–	0.051 (≈ 0.0938 µM)	–	–	0.012 (≈ 0.0221 µM)	–	0.088	0.0018 (≈ 0.00331 µM)	–
